{"source": "patent US20160250213A1", "about": "“FORMULATIONS OF AZAINDOLE COMPOUNDS” (priority 2013, published 2016)", "key": {"[1]": {"conditions": "ambient temperature"}, "A/Puerto Rico/8/34": {"system": "A/Puerto Rico/8/34", "format": "cell-based, influenza A virus"}, "[2]": {"system": "Influenza A/California/04/2009 (pndH1N1) virus", "format": "in vivo, BALB/c mice", "conditions": "10 mg/kg p.o. twice a day for 10 days starting 2 hours prior to virus exposure"}, "[3]": {"system": "Influenza A/Victoria/3/75 (H3N2) virus", "format": "in vivo, BALB/c mice", "conditions": "10 mg/kg p.o. twice a day for 10 days starting 2 hours prior to virus exposure"}, "influenza A virus": {"system": "influenza A virus", "format": "in vivo, mice"}, "influenza A": {"system": "influenza A", "design": "species or system mice", "conditions": "mouse, in vivo"}}, "note": "Where two headings read alike, the source gives them in different places. Marks after values point to notes of the source that are not given here."}
{"smiles": "O=C(O)[C@H]1C2CCC(CC2)C1Nc1nc(-c2c[nH]c3ncc(F)cc23)ncc1F", "note": "(stereo partly drawn) [amorphous compound (1)]", "values": [{"measurement": "Resulting Form", "setting": "[1]; solvent 1,1,2-Trichloroethane", "result": "Amorphous"}, {"measurement": "Resulting Form", "setting": "[1]; solvent 1,2-Dichloroethane", "result": "Amorphous"}, {"measurement": "Resulting Form", "setting": "[1]; solvent 1,2-Dimethoxyethane", "result": "Amorphous"}, {"measurement": "Resulting Form", "setting": "[1]; solvent 1,4-Dioxane", "result": "Solvate (1:1)"}, {"measurement": "Resulting Form", "setting": "[1]; solvent 1-Butanol", "result": "Solvate (1:1)"}, {"measurement": "Resulting Form", "setting": "[1]; solvent 1-Pentanol", "result": "Solvate(1:1)"}, {"measurement": "Resulting Form", "setting": "[1]; solvent 1-Propanol", "result": "No signal"}, {"measurement": "Resulting Form", "setting": "[1]; solvent 2-Butanol", "result": "Solvate(1:1)"}, {"measurement": "Resulting Form", "setting": "[1]; solvent 2-Ethoxyethanol", "result": "No signal"}, {"measurement": "Resulting Form", "setting": "[1]; solvent 2-Methoxyethanol", "result": "No signal"}, {"measurement": "Resulting Form", "setting": "[1]; solvent 2-Methy-1-propanol", "result": "Solvate(1:1)"}, {"measurement": "Resulting Form", "setting": "[1]; solvent 2-Propanol", "result": "Solvate(1:1)"}, {"measurement": "Resulting Form", "setting": "[1]; solvent 3-Methyl-1-butanol", "result": "Solvate"}, {"measurement": "Resulting Form", "setting": "[1]; solvent Acetone", "result": "Solvate"}, {"measurement": "Resulting Form", "setting": "[1]; solvent Acetonitrile", "result": "Amorphous"}, {"measurement": "Resulting Form", "setting": "[1]; solvent Anisole", "result": "Amorphous"}, {"measurement": "Resulting Form", "setting": "[1]; solvent Butyl acetate", "result": "Amorphous"}, {"measurement": "Resulting Form", "setting": "[1]; solvent Chlorobenzene", "result": "Amorphous"}, {"measurement": "Resulting Form", "setting": "[1]; solvent Chloroform", "result": "Amorphous"}, {"measurement": "Resulting Form", "setting": "[1]; solvent Cumene", "result": "Amorphous"}, {"measurement": "Resulting Form", "setting": "[1]; solvent Cyclohexane", "result": "Amorphous"}, {"measurement": "Resulting Form", "setting": "[1]; solvent Dichloromethane", "result": "Amorphous"}, {"measurement": "Resulting Form", "setting": "[1]; solvent Dimethylsulfoxide", "result": "No signal"}, {"measurement": "Resulting Form", "setting": "[1]; solvent Ethyl acetate", "result": "Amorphous"}, {"measurement": "Resulting Form", "setting": "[1]; solvent Ethyl ether", "result": "Amorphous"}, {"measurement": "Resulting Form", "setting": "[1]; solvent Ethyl formate", "result": "Solvate(1:1)"}, {"measurement": "Resulting Form", "setting": "[1]; solvent Ethylene glycol", "result": "Solvate"}, {"measurement": "Resulting Form", "setting": "[1]; solvent Formamide", "result": "Amorphous"}, {"measurement": "Resulting Form", "setting": "[1]; solvent Formic acid", "result": "No signal"}, {"measurement": "Resulting Form", "setting": "[1]; solvent Heptane", "result": "Solvate"}, {"measurement": "Resulting Form", "setting": "[1]; solvent Hexane", "result": "Amorphous"}, {"measurement": "Resulting Form", "setting": "[1]; solvent Isobutyl acetate", "result": "Amorphous"}, {"measurement": "Resulting Form", "setting": "[1]; solvent Isopropyl acetate", "result": "Amorphous"}, {"measurement": "Resulting Form", "setting": "[1]; solvent Methanol", "result": "Solvate"}, {"measurement": "Resulting Form", "setting": "[1]; solvent Methyl acetate", "result": "Solvate"}, {"measurement": "Resulting Form", "setting": "[1]; solvent Methyl tetrahydrofuran", "result": "Solvate(1:1)"}, {"measurement": "Resulting Form", "setting": "[1]; solvent Methylbutyl ketone", "result": "Amorphous"}, {"measurement": "Resulting Form", "setting": "[1]; solvent Methylcyclohexane", "result": "Amorphous"}, {"measurement": "Resulting Form", "setting": "[1]; solvent Methylethyl ketone", "result": "Solvate(1:1)"}, {"measurement": "Resulting Form", "setting": "[1]; solvent N,N-Dimethylacetamide", "result": "Solvate"}, {"measurement": "Resulting Form", "setting": "[1]; solvent N,N-Dimethylformamide", "result": "No signal"}, {"measurement": "Resulting Form", "setting": "[1]; solvent N-Methylpyrrolidinone", "result": "No signal"}, {"measurement": "Resulting Form", "setting": "[1]; solvent Nitromethane", "result": "Amorphous"}, {"measurement": "Resulting Form", "setting": "[1]; solvent Pentane", "result": "Amorphous"}, {"measurement": "Resulting Form", "setting": "[1]; solvent Propyl acetate", "result": "Amorphous"}, {"measurement": "Resulting Form", "setting": "[1]; solvent Tetrahydrofuran", "result": "Solvate(1:1)"}, {"measurement": "Resulting Form", "setting": "[1]; solvent Tetralin", "result": "Amorphous"}, {"measurement": "Resulting Form", "setting": "[1]; solvent Toluene", "result": "Amorphous"}, {"measurement": "Resulting Form", "setting": "[1]; solvent Water", "result": "Amorphous"}, {"measurement": "Resulting Form", "setting": "[1]; solvent acetic acid", "result": "Solvate"}, {"measurement": "Resulting Form", "setting": "[1]; solvent t-Butylmethylether", "result": "Amorphous"}, {"measurement": "Resulting Form", "setting": "[1]; solvent xylene", "result": "Amorphous"}]}
{"smiles": "CCC(CC)O[C@@H]1C=C(C(=O)O)C[C@H](N)[C@H]1NC(C)=O", "note": "[oseltamivir carboxylate]", "values": [{"measurement": "Synergy Volume, 95% Confidence", "setting": "A/Puerto Rico/8/34; Bliss Independence (Macsynergy), in combination with Compound (1)", "result": 312}]}
{"smiles": "CCOC(=O)C1=C[C@@H](OC(CC)CC)[C@H](NC(C)=O)[C@@H](N)C1", "note": "[Oseltamivir, reference compound]", "values": [{"measurement": "Mean Lung Parameters (Day 6): Score (hemorrhage, 0 to 4)", "setting": "[2]", "result": 1.0}, {"measurement": "Mean Lung Parameters (Day 6): Virus Titer", "setting": "[2]", "result": 7.9, "unit": "Log10 CCID50/g"}, {"measurement": "Mean Lung Parameters (Day 6): Weight", "setting": "[2]", "result": 178, "unit": "mg"}, {"measurement": "Survivors/Total", "setting": "[2]", "result": "10/10***"}, {"measurement": "MDD ± SD (mean day of death of mice that died on or before day 21)", "setting": "[3]", "result": 7.0}, {"measurement": "Mean Lung Parameters (Day 6): Score (hemorrhage, 0 to 4)", "setting": "[3]", "result": "1.7 ± 1.1"}, {"measurement": "Mean Lung Parameters (Day 6): Virus Titer", "setting": "[3]", "result": "7.0 ± 0.3", "unit": "Log10 CCID50/g"}, {"measurement": "Mean Lung Parameters (Day 6): Weight", "setting": "[3]", "result": "218 ± 24", "unit": "mg"}, {"measurement": "Survivors/Total", "setting": "[3]", "result": "9/10***"}, {"measurement": "C.I. (combination index) values at the 50% effect level", "setting": "A/Puerto Rico/8/34", "result": 0.58}, {"measurement": "dosing initiation post infection up to which complete protection is provided", "setting": "influenza A virus; 10 mg/kg BID", "result": "≤ 24", "unit": "h"}, {"measurement": "survival", "setting": "influenza A virus; 10 mg/kg BID, same experiment (prophylactic)", "result": "survived"}, {"measurement": "survival", "setting": "influenza A virus; mouse, in vivo", "result": "survived"}, {"measurement": "Log10 Reduction vs. Vehicle", "setting": "influenza A", "result": "−0.15", "unit": "Log10"}, {"measurement": "Lung Viral Titer", "setting": "influenza A; 10 mg/kg", "result": 6.05, "unit": "Log10 TCID50"}]}
{"smiles": "CC(=O)N[C@H]1[C@H]([C@H](O)[C@H](O)CO)OC(C(=O)O)=C[C@@H]1N=C(N)N", "note": "[Zanamivir]", "values": [{"measurement": "C.I. (combination index) values at the 50% effect level", "setting": "A/Puerto Rico/8/34", "result": 0.64}, {"measurement": "Synergy Volume, 95% Confidence", "setting": "A/Puerto Rico/8/34", "result": 268}]}
{"smiles": "NC(=O)c1nc(F)c[nH]c1=O", "note": "[favipiravir]", "values": [{"measurement": "C.I. (combination index) values at the 50% effect level", "setting": "A/Puerto Rico/8/34", "result": 0.89}, {"measurement": "Synergy Volume, 95% Confidence", "setting": "A/Puerto Rico/8/34", "result": 317}]}
